We go through 30 compounds from patent US5489591A, “S-triazine derivative and remedy for estrogen-dependent disease containing said derivative as effective component” (Zenyaku Kogyo Kabushiki Kaisha, priority 1992, dated 1996).

Where a name gives a salt, the structure may show the parent alone.

For assay [1], the target named is T1, cholesterol side-chain cleaving enzyme (Sus scrofa, UniProt P10612).
T1 construct: porcine adrenal mitochondria; from tissue; host or cells: porcine adrenal mitochondria
T1 sequence (P10612 40-520): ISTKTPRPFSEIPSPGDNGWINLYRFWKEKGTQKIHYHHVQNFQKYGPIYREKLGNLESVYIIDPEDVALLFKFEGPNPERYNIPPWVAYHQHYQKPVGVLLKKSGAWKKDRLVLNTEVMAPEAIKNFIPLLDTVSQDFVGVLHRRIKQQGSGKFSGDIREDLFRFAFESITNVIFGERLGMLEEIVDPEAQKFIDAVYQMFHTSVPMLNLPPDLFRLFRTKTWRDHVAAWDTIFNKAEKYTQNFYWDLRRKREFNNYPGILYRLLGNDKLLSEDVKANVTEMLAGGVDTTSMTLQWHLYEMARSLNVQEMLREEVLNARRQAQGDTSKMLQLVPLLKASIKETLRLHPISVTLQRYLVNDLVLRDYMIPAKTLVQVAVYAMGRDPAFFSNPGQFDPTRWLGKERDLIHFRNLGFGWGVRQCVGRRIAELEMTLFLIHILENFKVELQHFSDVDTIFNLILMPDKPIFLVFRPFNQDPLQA
Put plainly: Inhibitory activity against cholesterol side-chain cleaving enzyme (Pharmacological Test 2, porcine adrenal mitochondria). It is filed as biochemical. Conditions: substrate 5-cholesten-3β-ol 5.0×10^-6 M, read-out: SCC-IC50. As for the experimental part: Inhibitory activity against cholesterol side-chain cleaving enzyme was determined according to the method of M. Shikita and P. F. Hall [Proc. Nat. […] Briefly, the each compound to be tested was added to a reaction vial containing porcine adrenal mitochondria, [4-^14 C]5-cholesten-3β-ol (250 Bq/5 nmol) and NADPH. […] These were separated by extracting the reaction mixture with methylene-dichloride followed by purifying with thin-layer chromatography. Substrate (5-cholesten-3β-ol) and reaction product (3β-hydroxypregn-5-en-20-one) were respectively measured by a liquid scintillation counter. The measured quantity of 3β-hydroxypregn-5-en-20-one was used to determine cholesterol side-chain cleaving activity which was compared with the activity when incubated without inhibitor to calculate inhibition ratio (%).

A further assay addresses T2, Aromatase (Homo sapiens, UniProt P11511).
T2 construct: human placenta microsome; from tissue; host or cells: human placenta microsomes
T2 sequence (P11511 1-503): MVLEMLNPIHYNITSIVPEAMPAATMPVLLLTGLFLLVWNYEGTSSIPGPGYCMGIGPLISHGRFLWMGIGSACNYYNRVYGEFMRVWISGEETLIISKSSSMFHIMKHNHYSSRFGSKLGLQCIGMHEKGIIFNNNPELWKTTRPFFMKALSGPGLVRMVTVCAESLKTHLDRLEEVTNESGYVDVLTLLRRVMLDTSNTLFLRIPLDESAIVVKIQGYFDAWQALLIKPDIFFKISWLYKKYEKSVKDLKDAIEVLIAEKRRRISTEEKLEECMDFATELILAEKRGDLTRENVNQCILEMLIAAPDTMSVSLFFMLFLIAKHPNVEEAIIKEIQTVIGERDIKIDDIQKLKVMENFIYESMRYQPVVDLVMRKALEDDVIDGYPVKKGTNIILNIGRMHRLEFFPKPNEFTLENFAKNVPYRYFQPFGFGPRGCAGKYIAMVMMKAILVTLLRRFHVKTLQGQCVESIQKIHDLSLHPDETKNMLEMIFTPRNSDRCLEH
Nature of the assay: Aromatase inhibitory activity (Pharmacological Test 1, human placenta microsome). It is filed as biochemical. To be noted: substrate 4-androsten-3,17-dione 1.0×10^-6 M, read-out: AI-IC50. As for the experimental part:
Aromatase inhibitory activity was determined according to the method of E. A. Thompson and P. K. Siiteri [J. Biol. Chem., 249, 5364-5372 (1974)]. The each compound to be tested was added to a reaction vial containing human placenta microsome, [1β,2 β-^3 H]4-androsten-3,17-dione (3.3 kBq/500 pmol) and NADPH. […] The obtained [^3 H]H2 O was measured by a liquid scintillation counter. The measured quantity of [3H]H20 was used to determine aromatase activity, and was compared with the activity when incubated without inhibitor to calculate inhibition ratio (%).

In the case of `c1cn(-c2nc(N3CCSCC3)nc(-n3ccnc3)n2)cn1` [Compound 31, 2,4-Bis (1-imidazolyl)-6-thiomorpholino-1,3,5-triazine], the IC50 – broadly, the point on the concentration scale where inhibition reaches its midpoint – was > 100000 nM in assay [1] and 43 nM on Aromatase.
Turning to `CN(c1ccc(N)cc1)c1nc(N2CCOCC2)nc(-n2ccnc2)n1` [Compound 56, 2-[N-(4-Aminophenyl)-N-methylamino]-4-(1-imidazolyl)-6-morpholino-1,3,5-triazine], the figures for the IC50 (in assay [1]; on Aromatase) were > 100000 nM and 32 nM, respectively.
The corresponding values for `CN(c1ccc([N+](=O)[O-])cc1)c1nc(-n2ccnc2)nc(-n2ccnc2)n1` [Compound 52, 2,4-Bis(1-imidazolyl)-6-[N-methyl-N-(4-nitrophenyl)amino]-1,3,5-triazine] are > 100000 nM and 10 nM.
The corresponding values for `Nc1ccc(N2CCN(c3nc(N4CCOCC4)nc(-n4ccnc4)n3)CC2)cc1` [hydrochloride of No. 57, Hydrochloride of 2-[4-(4-aminophenyl)-1-piperazinyl]-4-(1-imidazolyl)-6-morpholino-1,3,5-triazine] are > 100000 nM and 31 nM.
The corresponding values for `CCCCN(c1ccccc1)c1nc(-n2ccnc2)nc(-n2ccnc2)n1` [Compound 50, 2-(N-n-Butyl-N-phenylamino)-4,6-bis (1-imidazolyl)-1,3,5-triazine] are 15000 nM and 16 nM.
In the case of `CN(C)c1nc(N2CCOCC2)nc(-n2ccnc2)n1` [Compound 1, 2-(1-Imidazolyl)-4-dimethylamino-6-morpholino-1,3,5-triazine], the half-maximal inhibitory concentration (IC50) was > 100000 nM in assay [1] and 10 nM on Aromatase.
Turning to `CN(C)c1nc(N2CCCC2)nc(-n2ccnc2)n1` [Compound 2, 2-(1-Imidazolyl)-4-dimethylamino-6-(1-pyrrolidinyl)-1,3,5-triazine], the figures for the IC50 (in assay [1]; at Aromatase) were > 100000 nM and 1300 nM, respectively.
Turning to `CC1CN(c2nc(N3CCOCC3)nc(-n3ccnc3)n2)CC(C)O1` (stereo not shown) [Compound 10, 2-(1-Imidazolyl)-4-(2,6-dimethylmorpholino)-6-morpholino-1,3,5-triazine], the IC50 is > 100000 nM in assay [1] and 31 nM at Aromatase.
The corresponding values for `CN(c1ccccc1)c1nc(N2CCOCC2)nc(-n2ccnc2)n1` [Compound 14, 2-(1-Imidazolyl)-4-(N-methyl-N-phenylamino)-6-morpholino-1,3,5-triazine] are 31000 nM and 6.7 nM.
For `c1ccc(C2CCN(c3nc(N4CCSCC4)nc(-n4ccnc4)n3)CC2)cc1` [Compound 39, 2-(1-Imidazolyl)-4-(4-phenylpiperidino)-6-thiomorpholino-1,3,5-triazine] the same measures were 37000 nM and 20 nM.
For the compound `c1cn(-c2nc(N3CCCC3)nc(-n3ccnc3)n2)cn1` [Compound 26, 2,4-Bis(1-imidazolyl)-6-(1-pyrrolidinyl)-1,3,5-triazine], the figures for the half-maximal inhibitory concentration (IC50) (in assay [1]; on Aromatase) were > 100000 nM and 62 nM, respectively.
The corresponding values for `CC1CC(C)CN(c2nc(N3CCOCC3)nc(-n3ccnc3)n2)C1` (stereo not shown) [Compound 11, 2-(1-Imidazolyl)-4-(3,5-dimethylpiperidino)-6-morpholino-1,3,5-triazine] are 19000 nM and 11 nM.
For `CCOC(=O)C1CCN(c2nc(N3CCOCC3)nc(-n3ccnc3)n2)CC1` [Compound 40, 2-(4-Ethoxycarbonylpiperidino)-4-(1-imidazolyl)-6-morpholino-1,3,5-triazine] the same measures were 66000 nM and 24 nM.
The corresponding values for `c1ccc(C2CCN(c3nc(-n4ccnc4)nc(-n4ccnc4)n3)CC2)cc1` [Compound 28, 2,4-Bis(1-imidazolyl)-6-(4-phenylpiperidino)-1,3,5-triazine] are 9500 nM and 62 nM.
As for `c1cn(-c2nc(N3CCCCC3)nc(N3CCCCC3)n2)cn1` [Compound 18, 2-(1-Imidazolyl)-4,6-dipiperidino-1,3,5-triazine], the figures for the IC50 (in assay [1]; at Aromatase) were > 100000 nM and 310 nM, respectively.
Turning to `CCN(CC)c1nc(-n2ccnc2)nc(-n2ccnc2)n1` [Compound 25, 2,4-Bis(1-imidazolyl)-6-diethylamino-1,3,5-triazine], the concentration for half-maximal inhibition (IC50) came out at 25000 nM in assay [1] and 60 nM on Aromatase.
For `CN(C)c1nc(-n2ccnc2)nc(-n2ccnc2)n1` [Compound 24, 2,4-Bis(1-imidazolyl)-6-dimethylamino-1,3,5-triazine] the same measures were 80000 nM and 550 nM.
As for `OC1CCN(c2nc(N3CCOCC3)nc(-n3ccnc3)n2)CC1` [Compound 46, 2-(4-Hydroxypiperidino)-4-(1-imidazolyl)-6-morpholino-1,3,5-triazine], the half-inhibitory concentration (IC50) in assay [1] is 100000 nM; at Aromatase it was 53 nM.
On to `CN(c1ccc(Cl)cc1)c1nc(-n2ccnc2)nc(-n2ccnc2)n1` [Compound 54, 2-[N-(4-Chlorophenyl)-N-methylamino]-4,6-bis(1-imidazolyl)-1,3,5-triazine], for which the IC50 in assay [1] came out at 19000 nM; on Aromatase, 8.6 nM.
For `Fc1ccc(N2CCN(c3nc(N4CCOCC4)nc(-n4ccnc4)n3)CC2)cc1` [Compound 43, 2-[4-(4-Fluorophenyl)-1-piperazinyl]-4-(1-imidazolyl)-6-morpholino-1,3,5-triazine] the same measures were > 100000 nM and 20 nM.
For `c1ccc(N2CCN(c3nc(-n4ccnc4)nc(-n4ccnc4)n3)CC2)cc1` [Compound 30, 2,4-Bis(1-imidazolyl)-6-(4-phenyl-1-piperazinyl)-1,3,5-triazine] the same measures were 65000 nM and 220 nM.
For `c1cn(-c2nc(N3CCSCC3)nc(N3CCSCC3)n2)cn1` [Compound 21, 2-(1-Imidazolyl)-4,6-bis(thiomorpholino)-1,3,5-triazine] the same measures were 100000 nM and 5.1 nM.
With `OCCC1CCCCN1c1nc(N2CCOCC2)nc(-n2ccnc2)n1` (stereo not shown) [Compound 47, 2-[2-(2-Hydroxyethyl)piperidino]-4-(1-imidazolyl)-6-morpholino-1,3,5-triazine], the results for the IC50 (in assay [1]; on Aromatase) were > 100000 nM and 44 nM, respectively.
Consider `CC1CN1c1nc(N2CCOCC2)nc(-n2ccnc2)n1` (stereo not shown) [Compound 42, 2-(1-Imidazolyl)-4-(2-methyl-1-aziridinyl)-6-morpholino-1,3,5-triazine], for which the 50% inhibitory concentration (IC50) was > 100000 nM in assay [1] and 57 nM on Aromatase.
Turning to `c1ccc(N2CCN(c3nc(N4CCOCC4)nc(-n4ccnc4)n3)CC2)nc1` [Compound 8, 2-(1-Imidazolyl)-4-morpholino-6-[4-(2-pyridyl)-1-piperazinyl]-1,3,5-triazine], the IC50 came to 54000 nM in assay [1] and 11 nM on Aromatase.
The corresponding values for `CCCCN(CCCC)c1nc(-n2ccnc2)nc(-n2ccnc2)n1` [Compound 36, 2-(Di-n-butylamino)-4,6-bis(1-imidazolyl)-1,3,5-triazine] are 12000 nM and 14 nM.
For `c1cn(-c2nc(N3CCOCC3)nc(-n3ccnc3)n2)cn1` [Compound 23, 2,4-Bis(1-imidazolyl)-6-morpholino-1,3,5-triazine] the same measures were > 100000 nM and 21 nM.
As to `CCC1(c2ccc(N)cc2)CCC(=O)NC1=O` (stereo not shown) [AG, aminoglutethimide, reference compound], the 50% inhibitory concentration (IC50) in assay [1] stood at 66000 nM.
As to `Cc1ncn(-c2nc(N(C)C)nc(-n3ccnc3)n2)c1C` [Compound 5, 2-(1-Imidazolyl)-4-dimethylamino-6-(4,5-dimethyl-1-imidazolyl)-1,3,5-triazine], the IC50 is > 100000 nM in assay [1] and 200 nM on Aromatase.
Regarding `CN(C)c1nc(N(C)C)nc(N(C)C)n1` [HMM, hexamethylmelamine, reference compound], in assay [1], the IC50 was > 100000 nM.
